This note sets out measurements from patent US10000765B2, “Gene encoding cytochrome P450, and use thereof” (NATIONAL INSTITUTE OF AGROBIOLOGICAL SCIENCES, priority 2011, dated 2018).

The subject of data set [1] is non-transformed Arabidopsis thaliana (NT). Briefly: Drug sensitivity test on drug-containing MS medium, non-transformed Arabidopsis thaliana. In kind it is in vivo. The protocol:
A bag of mixed salts for Murashige-Skoog (MS) medium (manufactured by Wako Pure Chemical Industries, Ltd.) 20 g of sucrose, 3 mg of thiamin hydrochloride, 5 mg of nicotinic acid, and 0.5 mg of pyridoxine hydrochloride were dissolved in distilled water, and filled up to 1 L with distilled water. After pH adjustment to 5.8 to 6.3 with 1 M KOH, 3 g of Gelrite was added to the solution, and dissolved using a microwave. After that, the mixture was autoclaved to prepare a sterile MS medium. A test drug was added to this sterile MS medium so as to make a final concentration of 1.3, 4.1, 12, 37, 110, or 330 nM. Arabidopsis thaliana from a sterilized seed was seeded in the drug-containing MS medium, and cultivated at 22° C. for 12 to 14 days in a continuous light period.
Note that the drugs used in this Example were bispyribac-sodium, pyrithiobac-sodium, pyriminobac, bensulfuron-methyl, penoxsulam, pyrazosulfuron-ethyl, amidosulfuron, imazosulfuron, nicosulfuron, and propyrisulfuron.

Data set [2] relates to Rice (Nipponbare) calluses transformed with pCAMBIA1390-KasCYP72A31. As to the kind of experiment: Redifferentiation and rooting test, rice callus transformed with pCAMBIA1390-KasCYP72A31. Type of data set: cell-based, Oryza sativa. The protocol:
After selective culturing, the callus was transplanted onto a rice redifferentiation medium RE-III (containing 50 ppm hygromycin or 0.25 μM bispyribac sodium), cultured at 27 degree C. under 16L/8D conditions, and led to redifferentiate. The callus was plated after 2 weeks. At additional about 2 to 3 weeks, a redifferentiated, transformed rice (T0) was obtained. Once a differentiated shoot and/or root had appeared, the rice was transplanted onto a hormone-free (HF) medium (containing 50 ppm hygromycin or 0.25 μM bispyribac sodium).
According to Example 5, an HptII::35Spro::Kasalath CYP72A31::Tnos vector plasmid (pCAMBIA1390-KasCYP72A31, a kasCYP72A31 overexpression construct) or, as controls, an HptII::35Spro::sGFP::Tnos vector plasmid (pCAMBIA1302-sGFP, an sGFP overexpression construct) or an OsALS (W548L/S627I)::OsAct-1pro::sGFP::Tnos vector plasmid (pSTARA-sGFP, a BS-resistant construct) was introduced into a rice variety (a cultivar: Nipponbare) by using an Agrobacterium method. According to a schedule designated in FIG. 12A), transformed calluses were selected with 50 ppm hygromycin. […] Of all the calluses, 43 calluses were transplanted onto a redifferentiation medium containing 0.25 μM BS.
Rice (Nipponbare) calluses transformed with a pCAMBIA1390-KasCYP72A31 construct in Example 8 were obtained by 50 ppm hygromycin selection. When these calluses were transplanted onto a redifferentiation medium containing 50 ppm hygromycin, shoots and roots were differentiated from the callus at a redifferentiation efficiency of 95% (38/40 calluses). Subsequently, 25 redifferentiation calluses transformed with a pCAMBIA1390-KasCYP72A31 construct were transplanted onto a hormone-free medium containing 1 μM BS. As a result, 7 calluses had extending roots (a root extension rate of 28%. FIG. 15).

For data set [3], the system named is rice calluses transformed with pSTARA-sGFP. As to the kind of experiment: Selection of drug-resistant callus in N6D medium, pSTARA-sGFP. Conditions: N6D medium containing 0.25 μM BS. In kind it is cell-based, Oryza sativa. As for the experimental part: Rice transformed with pCAMBIA1390-KasCYP72A31 was used to examine whether a Kasalath-derived CYP72A31 gene was able to be used as a selection marker for transformation with BS as a selection reagent. According to Example 5, rice (Nipponbare) was transformed with pCAMBIA1390-KasCYP72A31 or pSTARA-sGFP by using an Agrobacterium method.
Rice (Nipponbare) calluses transformed with pCAMBIA1390-KasCYP72A31 were cultured for 4 weeks in an N6D medium containing 0.1 or 0.25 μM BS or an N6D medium containing 50 ppm hygromycin to select drug-resistant calluses. Also, rice calluses transformed with pSTARA-sGFP were selected in a similar manner in an N6D medium containing 0.25 μM BS.

Data set [4] concerns Arabidopsis thaliana K31-4-2 and K31-6-5. As to the kind of experiment: Growth test in BS-containing medium, Arabidopsis transformed with Kasalath-derived CYP72A31. In kind it is in vivo. To be noted: day 10 from onset of cultivation, compared to NT. An excerpt:
In this Example, Agrobacterium as prepared in Example 4 was used to introduce HptII::35Spro::Kasalath CYP72A31::Tnos vector plasmid (pCAMBIA1390-KasCYP72A31), HptII::35Spro::Kasalath CYP72A32::Tnos vector plasmid (pCAMBIA1390-KasCYP72A32), or HptII::35Spro::Kasalath CYP72A33::Tnos vector plasmid (pCAMBIA1390-KasCYP72A33) into Arabidopsis thaliana (ecotype: Col-0) by using a floral-dip method. The floral-dip method followed a standard method. […] K31-4-2 and K31-6-5 were selected as fixed lines derived from pCAMBIA1390-KasCYP72A31; K32-1-1, K32-3-1, and K32-5-1 were selected as fixed lines derived from pCAMBIA1390-KasCYP72A32; and K33-1-3 and K33-2-4 were selected as fixed lines derived from pCAMBIA1390-KasCYP72A33. Their seeds were seeded in a medium containing each concentration of BS, and cultivated for 10 days. FIGS. 16A and 16B illustrate the results.
Next, 15 seeds for each of non-transformed Arabidopsis thaliana (NT, which is denoted by “Col-0” in FIGS. 17A-17C) and transformed plant bodies (K31-4-2 which is denoted by “K31oe-4-2” in FIGS. 17A-17C and K31-6-5 which is denoted by “K31oe-6-5” in FIGS. 17A-17C) were cultivated on a medium containing each concentration of BS. […]

Take `COc1cc(OC)nc(Oc2cccc(Oc3nc(OC)cc(OC)n3)c2C(=O)O)n1` [BS, bispyribac sodium]: the “Rate of emerging of true leaf (%)” value in data set [1] (drug 1.3 nM, day 12 after seeding) was 44%; in data set [1] (drug 1.3 nM, day 14 after seeding) it was 100%; in data set [1] (drug 4.1 nM, day 12 after seeding), 67%; in data set [1] (drug 4.1 nM, day 14 after seeding) it was 100%; in data set [1] (drug 12 nM, day 12 after seeding), 56%; in data set [1] (drug 12 nM, day 14 after seeding), 50%. The “Rate of emerging of true leaf (%)” value in data set [1] (drug 37 nM, day 12 after seeding) was determined as 0%; in data set [1] (drug 37 nM, day 14 after seeding), 0%; in data set [1] (drug 110 nM, day 12 after seeding), 0%; in data set [1] (drug 110 nM, day 14 after seeding), 0%; in data set [1] (drug 330 nM, day 12 after seeding), 0%; in data set [1] (drug 330 nM, day 14 after seeding), 0%. The “Calluses with extending roots of all redifferentiation calluses” value in data set [2] (hormone-free medium containing 0.25 μM BS) is listed as 73%. Besides, the Root extension rate in data set [2] (hormone-free medium containing 1 μM BS) stood at 28%. Also, the Redifferentiation efficiency in data set [2] (redifferentiation medium containing 0.25 μM BS) is recorded as 91%. Also, in data set [3], the “Selection efficiency (ratio of the resulting transformed calluses/all calluses)” value came to 82%. Besides, the “BS sensitivity (germinated seeds, emerging of true leaves, fresh weight of above-ground part)” value in data set [4] is on record as “significantly lower BS sensitivity compared to NT”.
